From patent publication US20260209214A1, “LSD1 MODULATORS” (RECURSION PHARMACEUTICALS, INC., priority 2022, published 2026)
Structures can show the parent of a compound that is named as a salt.

Target: Recombinant human LSD1 (Homo sapiens, UniProt O60341)
Experiment: LSD1 inhibition assay (HTRF LSD1 Histone H3K4 mono-demethylation assay, me1->me0)
Assay type: biochemical
Conditions: 20 nM recombinant human LSD1, 95 nM H3K4(me1) biotinylated peptide, 15 min preincubation, 60 min at 25° C., read-out: LSD1 inhibition IC50 (nM range)
Description: LSD1 biochemical activity was measured using the HTRF® LSD1 Histone H3K4 mono-demethylation assay (me1->me0). Briefly, the enzymatic buffer was prepared by addition of 50 mM Tris-HCl (Sigma cat #T2663-IL), 50 mM NaCl (ThermoFisher cat #AM9759) and 0.01% Tween 20 (ThermoFisher cat #J20605.AP) in distilled water (final pH 8.5). This buffer was supplemented with 10 μM FAD (Fisher Scientific cat #11411838) and 1 mM DTT (Sigma cat #D0632). For the assay, H3K4(me1) biotinylated peptide substrate (Anaspec, cat #64355) was added to provide a final assay concentration of 95 nM. The streptavidin-XL665 (Cisbio cat #610SAXLA) and H3K4 me0-Eu(K) antibody-cryptate (Cisbio, cat #61 KAOKAD) detection reagents were mixed according to the manufacturer's instructions. Test compounds were diluted in DMSO in a series of 10 semi-log step doses; 10 nL of each compound dose were dispensed in 384 well plates. Recombinant human LSD1 was diluted into enzymatic buffer to provide a final assay concentration of 20 nM and added to the tested compounds for 15 minutes. The reaction was started by addition of the substrate and incubated at 25° C. for 60 minutes. The detection reagents were added, and the plate was incubated in the dark for 90 minutes. Fluorescence was measured on an Envision 2103 plate reader with optical setup for […] in the HTRF mode. The ratio of acceptor and donor emission signals was calculated for each well. Percent inhibition values were calculated from the HTRF ratios at different doses and fitted to a 4-parameter logistic curve to determine IC50 values. […]

Row | IC50 [nM] | SMILES
1 | > 1000 | N#Cc1ccc(-c2cc(CC3CNCCO3)ccc2N2CCC2)cc1Cl (stereo not shown) [Example 134, 4-[2-(azetidin-1-yl)-5-(morpholin-2-ylmethyl)phenyl]-2-chloro-benzonitrile]
2 | > 1000 | Cc1cc(CN2C[C@@H]3C[C@H]2CN3C2COC2)c(Cl)c(-c2ccc(C#N)c(F)c2)c1 [Example 345]
3 | 10 to 25 | Cc1ncsc1-c1c(CC2CNCCO2)cccc1-c1ccc(C#N)cc1 (stereo not shown) [Example 38, 2′-(4-methyl-1,3-thiazol-5-yl)-3′-[(morpholin-2-yl)methyl]-[1,1′-biphenyl]-4-carbonitrile]
4 | 25 to 100 | N#Cc1ccc(-c2cc(CC3CNCCO3)ccc2N2CCC3(CCOC3)CC2)cc1F (stereo not shown) [Example 70, 3-fluoro-5′-[(morpholin-2-yl)methyl]-2′-{2-oxa-8-azaspiro[4.5]decan-8-yl}-[1,1′-biphenyl]-4-carbonitrile]
5 | < 10 | N#Cc1ccc(-c2cccc(C[C@H]3CNCCO3)c2-c2ccns2)cc1F [Example 4, 3-fluoro-3′-{[(2S)-morpholin-2-yl]methyl}-2′-(1,2-thiazol-5-yl)-[1,1′-biphenyl]-4-carbonitrile]
6 | 10 to 25 | CN[C@]12CC[C@H](C1)N(Cc1cccc(-c3ccc(C#N)c(F)c3)c1C1CC1)C2 [Example 195, 2'-cyclopropyl-3-fluoro-3'-{[(1R,4R)-4-(methylamino)-2-azabicyclo[2.2.1]heptan-2-yl]methyl}-[1,1'-biphenyl]-4-carbonitrile]
7 | 100 to 1000 | COc1ccc(-c2c(C)cc(CC3CNCCO3)cc2-c2ccc(C#N)c(F)c2)cn1 (stereo not shown) [Example 85, 3-fluoro-2′-(6-methoxypyridin-3-yl)-3′-methyl-5′-[(morpholin-2-yl)methyl]-[1,1′-biphenyl]-4-carbonitrile]
8 | 100 to 1000 | COC1(C)CCN(c2ccc(CC3CNCCO3)cc2-c2ccc(C#N)c(F)c2)CC1 (stereo not shown) [Example 61, 3-fluoro-2′-(4-methoxy-4-methylpiperidin-1-yl)-5′-[(morpholin-2-yl)methyl]-[1,1′-biphenyl]-4-carbonitrile]
9 | 10 to 25 | N#Cc1ccc(-c2cccc(C[C@@H]3CNCCO3)c2-c2cncs2)cc1F (single isomer, unassigned) [Example 23]
10 | < 10 | N#Cc1ccc(-c2cccc(CC3CCNC3)c2-c2ccns2)cc1F (stereo not shown) [Example 109, 2-fluoro-4-[2-isothiazol-5-yl-3-(pyrrolidin-3-ylmethyl)phenyl]benzonitrile; hydrochloride]
11 | 10 to 25 | N#Cc1ccc(-c2cccc(C[C@H]3CNCCO3)c2C2=CCOC2)cc1F (single isomer, unassigned) [Example 22]
12 | < 10 | N#Cc1ccc(-c2cccc(C[C@@H]3CNCCO3)c2C2=CCOC2)cc1F (single isomer, unassigned) [Example 8]
13 | 10 to 25 | N#Cc1ccc(-c2cccc(CN3CCC4CC3CN4)c2C2CC2)cc1F (stereo not shown) [Example 199, 2'-cyclopropyl-3'-({2,6-diazabicyclo[3.2.1]octan-2-yl}methyl)-3-fluoro-[1,1'-biphenyl]-4-carbonitrile]
14 | 25 to 100 | N#Cc1ccc(-c2cc(CC3CNCCO3)ccc2N2CCC(C3CCOC3)CC2)cc1F (stereo not shown) [Example 100, 3-fluoro-5′-[(morpholin-2-yl)methyl]-2′-[4-(oxolan-3-yl)piperidin-1-yl]-[1,1′-biphenyl]-4-carbonitrile]
15 | 10 to 25 | N#Cc1ccc(-c2ccc(F)c(CN3C[C@]4(N)CC[C@H]3C4)c2-c2cnco2)cc1F [Example 334, 3'-{[(1S,4S)-4-amino-2-azabicyclo[2.2.1]heptan-2-yl]methyl}-3,4'-difluoro-2'-(1,3-oxazol-5-yl)-[1,1'-biphenyl]-4-carbonitrile]
16 | 10 to 25 | N#Cc1ccc(-c2ccc(F)c(CN3C[C@]4(N)CC[C@H]3C4)c2C2CC2)cc1F [Example 189, 3'-{[(1S,4S)-4-amino-2-azabicyclo[2.2.1]heptan-2-yl]methyl}-2'-cyclopropyl-3,4'-difluoro-[1,1'-biphenyl]-4-carbonitrile]
17 | 10 to 25 | COCC1CCN(c2ccc(CC3CNCCCO3)cc2-c2ccc(C#N)c(F)c2)CC1 (stereo not shown) [Example 74, 3-fluoro-2′-[4-(methoxymethyl)piperidin-1-yl]-5′-[(1,4-oxazepan-2-yl)methyl]-[1,1′-biphenyl]-4-carbonitrile]
18 | < 10 | N#Cc1ccc(-c2cccc(CC3CCCNC3)c2-c2ccns2)cc1F (stereo not shown) [Example 71, 3-fluoro-3′-[(piperidin-3-yl)methyl]-2′-(1,2-thiazol-5-yl)-[1,1′-biphenyl]-4-carbonitrile]
19 | 100 to 1000 | CC1(C)CN(Cc2cccc(-c3ccc(C#N)c(F)c3)c2C2CC2)CC1N (stereo not shown) [Example 278, 3'-[(4-amino-3,3-dimethylpyrrolidin-1-yl)methyl]-2'-cyclopropyl-3-fluoro-[1,1'-biphenyl]-4-carbonitrile]
20 | < 10 | CC1(C)CN(Cc2cccc(-c3ccc(C#N)c(F)c3)c2-c2ccns2)C[C@H]1N (single isomer, unassigned) [Example 194]
21 | 25 to 100 | CN1CCC12CCN(Cc1c(F)ccc(-c3ccc(C#N)c(F)c3)c1N1CCC1)C2 (stereo not shown) [Example 239, 2'-(azetidin-1-yl)-3,4'-difluoro-3'-({1-methyl-1,6-diazaspiro[3.4]octan-6-yl}methyl)-[1,1'-biphenyl]-4-carbonitrile]
22 | 10 to 25 | N#Cc1ccc(-c2cccc(CC3CNCCO3)c2-c2ccno2)cc1 (stereo not shown) [Example 12, 3′-[(morpholin-2-yl)methyl]-2′-(1,2-oxazol-5-yl)-[1,1′-biphenyl]-4-carbonitrile]
23 | 10 to 25 | N#Cc1ccc(-c2cccc(C[C@H]3CNCCO3)c2-c2ccno2)cc1 (single isomer, unassigned) [Example 9]

Row | SMILES | IC50 [nM]
24 | N#Cc1ccc(-c2cc(CN3[C@@H]4CC[C@H]3[C@@H](N)C4)ccc2CC2COC2)cc1F (racemic) [Example 246, 5'-{[(1S,2S,4R)-2-amino-7-azabicyclo[2.2.1]heptan-7-yl]methyl}-3-fluoro-2'-[(oxetan-3-yl)methyl]-[1,1'-biphenyl]-4-carbonitrile] | 100 to 1000
25 | N#Cc1ccc(-c2cccc(CN3[C@H]4CC[C@H](N)[C@@H]3CC4)c2Cl)cc1F (racemic) [Example 282, 3'-{[(1S,2S,5S)-2-amino-8-azabicyclo[3.2.1]octan-8-yl]methyl}-2'-chloro-3-fluoro-[1,1'-biphenyl]-4-carbonitrile] | 100 to 1000
26 | N#Cc1ccc(-c2cccc(CN3CC4CC(C3)N4)c2C2CC2)cc1F [Example 323, 4-[2-cyclopropyl-3-(3,6-diazabicyclo[3.1.1]heptan-3-ylmethyl)phenyl]-2-fluoro-benzonitrile; (2R,3R)-2,3-dihydroxybutanedioic acid] | 10 to 25
27 | N#Cc1ccc(-c2cccc(CN3[C@@H]4CC[C@H]3[C@@H](N)C4)c2C(F)F)cc1F (racemic) [Example 301, 3'-{[(1S,2S,4R)-2-amino-7-azabicyclo[2.2.1]heptan-7-yl]methyl}-2'-(difluoromethyl)-3-fluoro-[1,1'-biphenyl]-4-carbonitrile] | 25 to 100
28 | N#Cc1ccc(-c2cc(CN3[C@@H]4CC[C@H]3[C@@H](N)C4)ccc2C2CC2)cc1F (racemic) [Example 309, 5'-{[(1S,2S,4R)-2-amino-7-azabicyclo[2.2.1]heptan-7-yl]methyl}-2'-cyclopropyl-3-fluoro-[1,1'-biphenyl]-4-carbonitrile] | 10 to 25
